In US20110098296A1, “Thiazole And Oxazole Kinase Inhibitors” (priority 2007, published 2011):

Assays:
Format in all cases: cell-based
[1] = system: HT-29 tumor cells; assay: Method C: Cell Growth Inhibition Assay (CellTiter-Glo), HT-29; details: Homo sapiens, HT-29, 72 h, 3 days, 4-parameter fit
Outline: (§1)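 Cells were seeded at 500 per well and dosed the next day with nine serial 1:3 compound dilutions (0.2% DMSO final), then grown 3 days at 37° C, 5% CO2. ATP was measured by CellTiter-Glo luminescence, and IC50 was interpolated by 4-parameter fit of percent inhibition versus DMSO controls.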

[2] = system: HN5 tumor cells; assay: Method A: Methylene Blue Growth Inhibition Assay, HN5; details: Homo sapiens, 72 h, 3 days
Outline: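 BT474 (10,000/well) and HN5 (3,000/well) cells plated, dosed next day in DMEM (0.3% DMSO final) and grown 3 days at 37° C. Biomass read as methylene blue OD 620 nm; growth inhibition relative to vehicle, IC50 by nonlinear regression.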

[3] = system: Colo205 tumor cells; assay: Method C: Cell Growth Inhibition Assay (CellTiter-Glo), Colo205; details: Homo sapiens, COLO 205, 72 h, 3 days, 4-parameter fit
Outline: (§2)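 Luminescent ATP signal (CellTiter-Glo, after 30 min room-temperature equilibration) served as a surrogate for cell number after a 3-day compound exposure at 37° C. Cells were plated at 500/well and treated with serially diluted compound at 0.2% DMSO. IC50 values are 4-parameter fits against DMSO-treated wells.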

[4] = system: SK-MEL-3 tumor cells; assay: Method C: Cell Growth Inhibition Assay (CellTiter-Glo), SK-MEL-3; details: Homo sapiens, SK-MEL3, 72 h, 3 days, 4-parameter fit
Outline: as §2

[5] = system: A375P F11s tumor cells; assay: Method C: Cell Growth Inhibition Assay (CellTiter-Glo), A375P F11s; details: Homo sapiens, 72 h, 3 days, 4-parameter fit
Outline: as §1

IC50 [1]	IC50 [2]	IC50 [3]	IC50 [4]	IC50 [5]	Structure (SMILES)
100 to 1000 nM					COc1cc(Nc2nccc(-c3sc(N)nc3-c3cccc(NC(=O)c4c(F)cccc4F)c3)n2)cc(OC)c1OC [Example 16, N-[3-(2-Amino-5-{2-[(3,4,5-trimethoxyphenyl)amino]pyrimidiN-4-yl}-1,3-thiazol-4-yl)phenyl]-2,6-difluorobenzamide]
	< 100 nM	> 1000 nM			COc1ccc(Nc2nccc(-c3sc(N)nc3-c3cccc(NC(=O)c4c(F)cccc4F)c3)n2)cc1N1CCNCC1 [Example 18, N-[3-(2-Amino-5-{2-[(4-methoxy-3-piperaziN-1-ylphenyl)amino]pyrimidiN-4-yl}-1,3-thiazol-4-yl)phenyl]-2,6-difluorobenzamide]
		> 1000 nM			Cc1cc(-c2sc(N)nc2-c2cccc(NC(=O)c3c(F)cccc3F)c2)nc(Nc2cccc(F)c2)n1 [Example 48, N-[3-(2-Amino-5-{2-[(3-fluorophenyl)amino]-6-methyl-4-pyrimidinyl}-1,3-thiazol-4-yl)phenyl]-2,6-difluorobenzamide]
100 to 1000 nM			100 to 1000 nM	100 to 1000 nM	CCNc1nc(-c2cccc(NC(=O)C3CC3)c2)c(-c2ccnc(Nc3ccc(OCCN4CCCC4)c(Cl)c3)n2)s1 [Example 63, N-{3-[5-{2-[(3-Chloro-4-{[2-(1-pyrrolidinyl)ethyl]oxy}phenyl)amino]-4-pyrimidinyl}-2-(ethylamino)-1,3-thiazol-4-yl]phenyl}cyclopropanecarboxamide]
100 to 1000 nM			< 100 nM	100 to 1000 nM	Nc1nc(-c2cccc(C(=O)Nc3c(F)cccc3F)c2)c(-c2ccnc(Nc3cccc(CN4CCCC4)c3)n2)s1 [Example 77, 3-[2-Amino-5-(2-{[3-(1-pyrrolidinylmethyl)phenyl]amino}-4-pyrimidinyl)-1,3-thiazol-4-yl]-N-(2,6-difluorophenyl)benzamide]
		> 1000 nM			Cc1nc(-c2cccc(NC(=O)c3c(F)cccc3F)c2)c(-c2ccnc(Nc3ccc(OC4CCN(C(=O)OCc5ccccc5)CC4)c(F)c3)n2)s1 [Example 106]
100 to 1000 nM		100 to 1000 nM	100 to 1000 nM	> 1000 nM	CCc1nc(-c2cccc(NC(=O)c3c(F)cccc3F)c2)c(-c2ccnc(Nc3cccc(CN4CCCC4)c3)n2)s1 [Example 115, N-{3-[2-Ethyl-5-(2-{[3-(1-pyrrolidinylmethyl)phenyl]amino}-4-pyrimidinyl)-1,3-thiazol-4-yl]phenyl}-2,6-difluorobenzamide]
